Data on six compounds can be found in patent US8841257B2, “Inhibitors of STAT3 and uses thereof” (Board of Regents, The University of Texas System, priority 2009, dated 2014).

“Also recorded” adds a separate entry of the source.

T1 sequence (P40763 whole entry): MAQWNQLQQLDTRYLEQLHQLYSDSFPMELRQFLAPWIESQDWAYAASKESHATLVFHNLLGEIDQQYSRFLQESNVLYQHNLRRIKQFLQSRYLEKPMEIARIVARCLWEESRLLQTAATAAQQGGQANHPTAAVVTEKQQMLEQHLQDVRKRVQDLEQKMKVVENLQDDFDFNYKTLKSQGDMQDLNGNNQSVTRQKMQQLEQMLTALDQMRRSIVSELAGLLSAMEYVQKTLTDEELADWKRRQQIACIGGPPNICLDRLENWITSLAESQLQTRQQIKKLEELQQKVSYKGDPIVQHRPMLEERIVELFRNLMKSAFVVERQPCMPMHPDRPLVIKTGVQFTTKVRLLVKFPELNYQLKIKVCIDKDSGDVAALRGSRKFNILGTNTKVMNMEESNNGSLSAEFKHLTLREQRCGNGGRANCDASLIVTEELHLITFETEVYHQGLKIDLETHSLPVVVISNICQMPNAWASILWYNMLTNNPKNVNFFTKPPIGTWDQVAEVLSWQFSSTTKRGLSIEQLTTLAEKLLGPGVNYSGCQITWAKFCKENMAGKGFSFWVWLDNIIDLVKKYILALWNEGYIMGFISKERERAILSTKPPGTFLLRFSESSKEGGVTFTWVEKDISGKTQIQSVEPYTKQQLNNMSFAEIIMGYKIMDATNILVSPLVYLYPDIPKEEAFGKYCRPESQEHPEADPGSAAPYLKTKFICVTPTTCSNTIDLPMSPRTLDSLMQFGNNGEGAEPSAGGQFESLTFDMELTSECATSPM

The first assay deals with T1, STAT3 (Homo sapiens, UniProt P40763). Kind of assay: Inhibition of Stat3 tyrosine705 phosphorylation in MDA-MB-468 cells. In kind it is cell-based. Further details: host or cells: MDA-MB-468 breast tumor cells. The settings on record: prodrug in DMSO, 2 h. As to the method:
Inhibition of Stat3 tyrosine705 phosphorylation in MDA-MB-468 cells. MDA-MB-468 breast tumor cells (0.4×10^6) were plated onto 35 mm culture dishes and were allowed to grow overnight. Prodrugs were prepared as 10 mM stock solutions in DMSO and aliquots were added to the culture media to give the correct final concentrations. After 2 h the cells were washed with ice cold phosphate buffered saline. Washed cells were treated with lysis buffer (50 mM Hepes, pH 7.4, 150 mM NaCl, 1.5 mM MgCl2, 1 mM EGTA, 100 mM NaF, 10 mM sodium pyrophosphate, 10% glycerol, 1% Triton X-100, 1 mM PMSF, 1 mM Na3VO4, 10 μg/mL leupeptin and 10 μg/mL aprotinin). Cell-free detergent extracts were centrifuged at 15,000 rpm in a microcentriguge for 30 min at 4° C. and the protein concentrations of the supernatants determined. Aliquots containing 12 μg of protein were separated on 8% SDS-PAGE and were transferred to PVDF filters. The filters were blocked with 5% bovine serum albumin and were probed with pStat3^Y705 antibody followed by secondary antibody, whose signal was detected with an enhanced chemiluminescence kit (ECL, Amersham, Chicago, Ill.). Filters were stripped with stripping buffer (62.5 mM Tris, pH 6.8, 2% SDS, and 0.1 M 2-mercaptoethanol) at 50° C. for 30 min. Filters were then probed with total Stat3 antibody and visualized with chemiluminescence as above.
In the case of `CCCC[C@H](NC(=O)/C=C(\C)c1ccc(C(F)(F)P(=O)(OCOC(=O)C(C)(C)C)OCOC(=O)C(C)(C)C)cc1)C(=O)N1CCC[C@H]1C(=O)N[C@H](C)CCC(N)=O` [Example 23, (2E)-3-[4-[[bis[(2,2-dimethyl-1-oxopropoxy)methoxy]phosphinyl]difluoromethyl]phenyl]-but-2-enoyl-norleucinyl-prolinyl-(R)-4-aminonentamide], the “inhibition of Tyr705 phosphorylation of Stat3 (potency in words)” value is listed as “inhibit phosphorylation of STAT3”.
The same measure, in the same setting: then `CCCC[C@H](NC(=O)/C=C(\C)c1ccc(C(F)(F)P(=O)(OCOC(=O)C(C)(C)C)OCOC(=O)C(C)(C)C)cc1)C(=O)N1C[C@@H]2CC2[C@@H]1C(=O)N[C@@H](CCC(N)=O)[C@@H](C)OCc1ccccc1` (stereo partly drawn) [Example 17, (2E)-3-[4-[[bis[(2,2-dimethyl-1-oxopropoxy)methoxy]phosphinyl]difluoromethyl]phenyl]-but-2-enoyl-norleucinyl-(2R,3S,4R)-methanoprolinyl-(4S,5R)-4-amino-5-benzyloxyhexamide], with “very weak inhibitors; also recorded: much less potent”; and `CCCC[C@H](NC(=O)/C=C(\C)c1ccc(C(F)(F)P(=O)(OCOC(=O)C(C)(C)C)OCOC(=O)C(C)(C)C)cc1)C(=O)N1C[C@@H]2CC2[C@@H]1C(=O)N[C@H](C)CCC(N)=O` (stereo partly drawn) [Example 19, (2E)-3-[4-[[bis[(2,2-dimethyl-1-oxopropoxy)methoxy]phosphinyl]difluoromethyl]phenyl]-but-2-enoyl-norleucinyl-(2R,3S,4R)-methanoprolinyl-(R)-4-aminopentamide], with “very weak inhibitors; also recorded: much less potent”; and `CCCC[C@H](NC(=O)/C=C(\C)c1ccc(C(F)(F)P(=O)(OCOC(=O)C(C)(C)C)OCOC(=O)C(C)(C)C)cc1)C(=O)N1CC(F)(F)C[C@H]1C(=O)N[C@H](C)CCC(N)=O` [Example 24, (2E)-3-[4-[[bis[(2,2-dimethyl-1-oxopropoxy)methoxy]phosphinyl]difluoromethyl]phenyl]-but-2-enoyl-norleucinyl-4,4-difluoroprolinyl-(R)-4-aminopentamide], with “inhibit phosphorylation of STAT3”.
The same measure, in the same setting: then `CCCC[C@H](NC(=O)/C=C(\C)c1ccc(C(F)(F)P(=O)(OCOC(=O)C(C)(C)C)OCOC(=O)C(C)(C)C)cc1)C(=O)N1CC(C)(C)C[C@H]1C(=O)N[C@H](C)CCC(N)=O` [Example 25, (2E)-3-[4-[[bis[(2,2-dimethyl-1-oxopropoxy)methoxy]phosphinyl]difluoromethyl]phenyl]-but-2-enoyl-norleucinyl-4,4-dimethylprolinyl-(R)-4-aminopentamide], with “inhibit phosphorylation of STAT3”.

A further assay has as its target T1, STAT3. Kind of assay: Inhibition of STAT3 phosphorylation in BT20 breast tumor cells (western blot). The class given is cell-based. Further details: endogenous in cells; host or cells: BT20 breast tumor cells. The settings on record: 5 μM; BT-20 cells. As to the method: Inhibition of STAT3 in BT20 Breast Tumor Cells. General procedure: 35 mm petri dishes were plated with 300,000 BT20 cells in 2 mL RPMI1640 media containing 10% FBS, […], streptomycin, and glutamine. Prodrugs were dissolved in DMSO and were added to the cells with fresh media at varying concentrations. After 2 h the cells were washed with ice cold phosphate buffered saline. Washed cells were treated with lysis buffer (50 mM Hepes, pH 7.4, 150 mM NaCl, 1.5 mM MgCl2, 1 mM EGTA, 100 mM NaF, 10 mM sodium pyrophosphate, 10% glycerol, 1% Triton X-100, 1 mM PMSF, 1 mM Na3VO4, 10 μg/mL leupeptin and 10 μg/mL aprotinin). Cell-free detergent extracts were centrifuged at 15,000 rpm in a microcentriguge for 30 min at 4° C. and the protein concentrations of the supernatants determined. Aliquots containing 12 μg of protein were separated on 8% SDS-PAGE and were transferred to PVDF filters. The filters were blocked with 5% bovine serum albumin and were probed with pStat3^Y705 antibody followed by secondary antibody, whose signal was detected with an enhanced chemiluminescence kit (ECL, Amersham, Chicago, Ill.). Filters were stripped with stripping buffer (62.5 mM Tris, pH 6.8, 2% SDS, and 0.1 M 2-mercaptoethanol) at 50° C. for 30 min. Filters were then probed with total Stat3 antibody and visualized with chemiluminescence as above.
Because DMSO is toxic, other formulations were evaluated for potential use in animal models. The compound of Example 1 was dissolved in EtOH, 20% (w/v) Trappsol (hydroxypropyl β-cyclodextran, pharmaceutical grade), or a liposomal formulation to a concentration of 5 mM. These formulations were given to cells at 0.1, 0.5, and 5 μM concentrations. At two hours, cells were lysed and pSTAT3 levels were determined by Western Blot (FIG. 3). Different formulations have little effect on inhibition of STAT3. The compound of Example 1 was dissolved in DMSO, EtOH, Trappsol, or as a 10 mol % mixture in dimyristoylphosphatidyl choline and applied to BT20 cell in culture. After two hours, cells were lysed and pSTAT3 levels determined by Western blot. To prepare liposomes a solution of 1.0 mg of the compound of Example 1, 7.2 mg of DMPC, 0.41 mg of Tween 20 in 1.0 mL of tert-butanol was lyophilized. A control lipid formulation of 7.2 mg of DMPC and 0.41 mg of Tween 20 in 1.0 mL of tert-butanol was lyophilized. These samples were mixed with 236 μL of H2O and were vortexed and sonicated for 5 min.
The compounds are selective for STAT3 over STAT1 in BT20 breast tumor cells. BT20 cells prepared as above and were treated with 5 μM of the compound of Example 1 for two hours then were treated with 25 ng/mL of interferon γ (IFNγ). […] (FIG. 4, bottom panel).
Time course of inhibition of STAT3 phosphorylation in BT20 cells. BT20 cells were plated as above and treated with the compounds from Examples 1 and 6 and western blots were performed at varying time intervals.
On the technique in general: A western blot detects proteins with antibodies after separation by electrophoresis.
For `C/C(=C\C(=O)N[C@H]1CCc2cccc3c2N(C1=O)[C@H](C(=O)N[C@H](C)CCC(N)=O)C3)c1ccc(OP(=O)(OCOC(=O)C(C)(C)C)OCOC(=O)C(C)(C)C)cc1` [Example 6, (2E)-3-[4-[[bis[(2,2-dimethyl-1-oxopropoxy)methoxy]phosphinyl]oxy]phenyl]-but-2-enoyl-Haic-(R)-4-aminopentamide], the “phosphorylation of STAT3 at the indicated time points” value is given as “inhibit the phosphorylation of STAT3”.
